Reference: PMC9919735, “Cupressus arizonica Greene: Phytochemical Profile and Cosmeceutical and Dermatological Properties of Its Leaf Extracts” (Molecules, 2023)

Experiments:
hyaluronidase enzyme = test: hyaluronic acid degradation, DMAB colorimetric, absorbance […] nm; type: biochemical; details: hyaluronic acid 1 mg/mL in 0.1 M acetate pH 3.5, CaCl2; positive control
[1] = molecular target: T1, Collagenase enzyme, from Clostridium histolyticum (ChC); test: FALGPA hydrolysis, absorbance […] nm; type: biochemical, Hathewaya histolytica; details: Tricine buffer 50 mM, 400 mM NaCl, 10 mM CaCl2, pH 7.5, 15 min preincubation; positive control
T1 construct: gene colG; native enzyme preparation, ColG / ColH not distinguished

## O=c1cc(CO)occ1O [Kojic acid]
Hyaluronidase enzyme
  Parameters IC50 (μg/mL) / Hyaluronidase: 14.46 ± 0.6 µg/mL

## O=c1c(O)c(-c2ccc(O)c(O)c2)oc2cc(O)cc(O)c12 [Quercetin]
[1]
  Parameters IC50 (μg/mL) / Collagenase: 24.83 ± 1.8 µg/mL
